Data taken from ChEMBL document CHEMBL4152302, “Benzo[d]thiazole-2-carbanilides as new anti-TB chemotypes: Design, synthesis, biological evaluation, and structure-activity relationship” (Eur J Med Chem, 2018).

What was measured:
[1] = tested on: Mycobacterium tuberculosis; experiment: Antimycobacterial activity against Mycobacterium tuberculosis H37Rv ATCC 27294 after 28 days by Two-fold serial dilution assay; type: functional; settings: H37Rv ATCC 27294, 672 h
[2] = Cytotoxicity against mouse RAW264.7 cells assessed as inhibition of cell viability at 50 ug/ml after 72 hrs by MTT assay relative to control; type: cell-based; settings: read-out: INH
[3] = Selectivity index, ratio of cytotoxic concentration for mouse RAW264.7 cells to MIC99 for Mycobacterium tuberculosis H37Rv ATCC 27294; type: toxicity; settings: read-out: Selectivity Index

Row | SMILES | MIC [1] | cytotoxicity at 72 h, 50 ug/ml [2] | selectivity ratio [3]
1 | O=C(Nc1ccccc1Cl)c1nc2cc(Cl)ccc2s1 | 77.3 µM |  | 
2 | O=C(Nc1ccccc1N1CCOCC1)c1nc2ccccc2s1 | 36.8 µM |  | 
3 | Cc1ccc(NC(=O)c2nc3cc(Cl)ccc3s2)cc1 | 5.15 µM | 22.6% | 
4 | O=C(Nc1ccc([N+](=O)[O-])cc1)c1nc2cc(C(F)(F)F)ccc2s1 | 2.12 µM | 32.6% | 64
5 | COc1cc(NC(=O)c2nc3cc(C(F)(F)F)ccc3s2)cc(OC)c1OC | 1.89 µM | 23.4% | 64
6 | O=C(Nc1cccc(C(F)(F)F)c1)c1nc2cc(C(F)(F)F)ccc2s1 | 16 µM | 19.8% | 
7 | O=C(Nc1ccc(N2CCOCC2)cc1)c1nc2cc(Cl)ccc2s1 | 2.09 µM | 42.3% | 64
8 | O=C(Nc1ccc(Br)cc1)c1nc2ccccc2s1 | > 75 µM |  | 
9 | O=C(Nc1ccc(F)cc1)c1nc2ccccc2s1 | > 91.8 µM |  | 
10 | O=C(Nc1ccccc1)c1nc2cc(Cl)ccc2s1 | 86.6 µM |  | 
11 | O=C(Nc1ccc(Br)cc1)c1nc2cc(C(F)(F)F)ccc2s1 | 62.3 µM |  | 
12 | COc1ccccc1NC(=O)c1nc2cc(Cl)ccc2s1 | 78.4 µM |  | 
13 | CCOC(=O)c1nc2ccccc2s1 | 121 µM |  | 
14 | O=C(Nc1ccccc1F)c1nc2cc(Cl)ccc2s1 | 5.09 µM | 18.1% | 
15 | O=C(Nc1ccc(Br)cc1)c1nc2cc(Cl)ccc2s1 | 4.24 µM | 53.1% | 
16 | O=C(Nc1ccccc1)c1nc2cc(C(F)(F)F)ccc2s1 | 77.6 µM |  | 
17 | NNC(=O)c1ccncc1 [ISONIAZID] | 0.098 µg/mL |  | 
18 | Cc1ccc(NC(=O)c2nc3ccccc3s2)cc1 | 46.6 µM |  | 
19 | O=C(Nc1ccc(Cl)cc1)c1nc2cc(Cl)ccc2s1 | 2.35 µM | 28.9% | 64
20 | O=C(Nc1ccc(Cl)cc1)c1nc2ccccc2s1 | > 86.6 µM |  | 
21 | O=C(Nc1cccc(Cl)c1)c1nc2ccccc2s1 | 2.7 µM | 26.8% | 64
22 | O=C(Nc1ccccc1C(F)(F)F)c1nc2cc(Cl)ccc2s1 | 70.1 µM |  | 
23 | O=C(Nc1cccc(F)c1)c1nc2cc(Cl)ccc2s1 | 5.09 µM | 29.1% | 
24 | O=C(Nc1ccccc1N1CCOCC1)c1nc2cc(Cl)ccc2s1 | 66.9 µM |  | 
25 | O=C(Nc1cccc(C(F)(F)F)c1)c1nc2ccccc2s1 | 38.8 µM |  | 
26 | CCOC(=O)c1nc2cc(C(F)(F)F)ccc2s1 | 22.7 µM |  | 
27 | NC(=O)c1cnccn1 [PYRAZINAMIDE] | 6.25 µg/mL |  | 

Row | SMILES | MIC [1] | cytotoxicity at 72 h, 50 ug/ml [2] | selectivity ratio [3]
28 | Cc1cccc(NC(=O)c2nc3cc(C(F)(F)F)ccc3s2)c1 | 4.64 µM | 34.6% | 
29 | O=C(Nc1cccc(F)c1)c1nc2ccccc2s1 | 22.9 µM | 20.9% | 
30 | Cc1cc(C)c(NC(=O)c2nc3cc(C(F)(F)F)ccc3s2)c(C)c1 | 68.6 µM |  | 
31 | Cc1ccccc1NC(=O)c1nc2ccccc2s1 | > 93.2 µM |  | 
32 | O=C(Nc1ccc(N2CCOCC2)cc1)c1nc2ccccc2s1 | 4.6 µM | 18.9% | 
33 | Cc1cc(C)c(NC(=O)c2nc3cc(Cl)ccc3s2)c(C)c1 | 75.6 µM |  | 
34 | O=C(Nc1cccc([N+](=O)[O-])c1)c1nc2ccccc2s1 | 2.61 µM | 38.4% | 64
35 | COc1cc(NC(=O)c2nc3ccccc3s2)cc(OC)c1OC | 2.26 µM | 30.1% | 64
36 | O=C(Nc1ccccc1C(F)(F)F)c1nc2ccccc2s1 | 38.8 µM |  | 
37 | Cc1cc(C)c(NC(=O)c2nc3ccccc3s2)c(C)c1 | 5.26 µM | 17.9% | 
38 | CO[C@H]1/C=C/O[C@@]2(C)Oc3c(C)c(O)c4c(O)c(c(/C=N/N5CCN(C)CC5)c(O)c4c3C2=O)NC(=O)/C(C)=C\C=C\[C@H](C)[C@H](O)[C@@H](C)[C@@H](O)[C@@H](C)[C@H](OC(C)=O)[C@@H]1C [RIFAMPIN] | 0.197 µg/mL |  | 
39 | O=C(Nc1ccc(N2CCOCC2)c(F)c1)c1nc2cc(Cl)ccc2s1 | 31.9 µM |  | 
40 | O=C(Nc1cccc(F)c1)c1nc2cc(C(F)(F)F)ccc2s1 | 36.7 µM |  | 
41 | CC[C@@H](CO)NCCN[C@@H](CC)CO [ETHAMBUTOL] | 1.56 µg/mL |  | 
42 | O=C(Nc1ccc(C(F)(F)F)cc1)c1nc2cc(Cl)ccc2s1 | 4.37 µM | 41% | 
43 | O=C(Nc1ccc([N+](=O)[O-])cc1)c1nc2ccccc2s1 | 20.9 µM | 35.6% | 
44 | COc1cccc(NC(=O)c2nc3ccccc3s2)c1 | > 87.9 µM |  | 
45 | COc1ccc(NC(=O)c2nc3ccccc3s2)cc1 | 22 µM | 24.6% | 
46 | O=C(Nc1ccc(C(F)(F)F)cc1)c1nc2ccccc2s1 | 2.42 µM | 13.6% | 64
47 | COc1ccc(NC(=O)c2nc3cc(C(F)(F)F)ccc3s2)cc1 | 2.21 µM | 35.7% | 64
48 | O=C(Nc1cccc(Cl)c1)c1nc2cc(Cl)ccc2s1 | 77.3 µM |  | 
49 | O=C(Nc1ccc(F)cc1)c1nc2cc(C(F)(F)F)ccc2s1 | 73.5 µM |  | 
50 | O=C(Nc1ccccc1Cl)c1nc2ccccc2s1 | 5.4 µM | 24% | 
51 | COc1ccccc1NC(=O)c1nc2ccccc2s1 | 11 µM | 16.7% | 
52 | O=C(Nc1ccccc1C(F)(F)F)c1nc2cc(C(F)(F)F)ccc2s1 | 2 µM | 27.8% | 64
53 | O=C(Nc1ccc(N2CCOCC2)c(F)c1)c1nc2cc(C(F)(F)F)ccc2s1 | 29.4 µM |  | 
54 | Cc1ccc(NC(=O)c2nc3cc(C(F)(F)F)ccc3s2)cc1 | 4.64 µM | 47.8% | 

Row | SMILES | MIC [1] | cytotoxicity at 72 h, 50 ug/ml [2] | selectivity ratio [3]
55 | O=C(Nc1ccccc1N1CCOCC1)c1nc2cc(C(F)(F)F)ccc2s1 | 30.7 µM |  | 
56 | O=C(Nc1cccc([N+](=O)[O-])c1)c1nc2cc(C(F)(F)F)ccc2s1 | 68.1 µM |  | 
57 | O=C(Nc1ccc(Cl)cc1)c1nc2cc(C(F)(F)F)ccc2s1 | 2.19 µM | 36.7% | 64
58 | COc1ccc(NC(=O)c2nc3cc(Cl)ccc3s2)cc1 | 78.4 µM |  | 
59 | CCOC(=O)c1nc2cc(Cl)ccc2s1 | 12.9 µM |  | 
60 | COc1cccc(NC(=O)c2nc3cc(Cl)ccc3s2)c1 | 2.45 µM | 18.7% | 64
61 | O=C(Nc1ccc(N2CCOCC2)c(F)c1)c1nc2ccccc2s1 | > 70 µM |  | 
62 | O=C(Nc1ccc(F)cc1)c1nc2cc(Cl)ccc2s1 | 5.09 µM | 34.6% | 
63 | COc1cc(NC(=O)c2nc3cc(Cl)ccc3s2)cc(OC)c1OC | 66 µM |  | 
64 | O=C(Nc1ccc(C(F)(F)F)cc1)c1nc2cc(C(F)(F)F)ccc2s1 | 64 µM |  | 
65 | O=C(Nc1ccccc1F)c1nc2ccccc2s1 | 11.5 µM | 24.9% | 
66 | O=C(Nc1ccc([N+](=O)[O-])cc1)c1nc2cc(Cl)ccc2s1 | 74.9 µM |  | 
67 | COc1ccccc1NC(=O)c1nc2cc(C(F)(F)F)ccc2s1 | 4.43 µM | 43.2% | 
68 | O=C(Nc1cccc([N+](=O)[O-])c1)c1nc2cc(Cl)ccc2s1 | 37.5 µM |  | 
69 | Cc1ccccc1NC(=O)c1nc2cc(Cl)ccc2s1 | 82.6 µM |  | 
70 | O=C(Nc1ccc(N2CCOCC2)cc1)c1nc2cc(C(F)(F)F)ccc2s1 | 61.4 µM |  | 
71 | Cc1cccc(NC(=O)c2nc3cc(Cl)ccc3s2)c1 | 20.6 µM | 52.2% | 
72 | O=C(Nc1ccccc1)c1nc2ccccc2s1 | 98.3 µM |  | 
73 | COc1cccc(NC(=O)c2nc3cc(C(F)(F)F)ccc3s2)c1 | 4.43 µM | 26.8% | 
74 | O=C(Nc1cccc(C(F)(F)F)c1)c1nc2cc(Cl)ccc2s1 | 70.1 µM |  | 
75 | O=C(Nc1cccc(Cl)c1)c1nc2cc(C(F)(F)F)ccc2s1 | 35 µM |  | 
76 | O=C(Nc1ccccc1Cl)c1nc2cc(C(F)(F)F)ccc2s1 | 70.1 µM |  | 
77 | Cc1ccccc1NC(=O)c1nc2cc(C(F)(F)F)ccc2s1 | 74.3 µM |  | 
78 | Cc1cccc(NC(=O)c2nc3ccccc3s2)c1 | > 93.2 µM |  | 
79 | O=C(Nc1ccccc1F)c1nc2cc(C(F)(F)F)ccc2s1 | 73.5 µM |  | 
